Where no end group is shown, it is not given here.
Experiments:
[1] = target: T1, purified I-Au class II molecules (Mus musculus, UniProt P06344+P14438); assay: Class II-peptide-binding inhibition assay, I-Au
T1 sequence (P14438 1-227): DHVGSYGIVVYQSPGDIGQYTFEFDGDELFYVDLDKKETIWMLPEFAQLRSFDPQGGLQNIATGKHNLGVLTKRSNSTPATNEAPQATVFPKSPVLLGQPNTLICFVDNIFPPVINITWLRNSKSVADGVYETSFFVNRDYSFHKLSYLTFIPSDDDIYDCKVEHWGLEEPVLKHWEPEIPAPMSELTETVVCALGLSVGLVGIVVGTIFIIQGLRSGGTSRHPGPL
T1 sequence (P06344 28-263): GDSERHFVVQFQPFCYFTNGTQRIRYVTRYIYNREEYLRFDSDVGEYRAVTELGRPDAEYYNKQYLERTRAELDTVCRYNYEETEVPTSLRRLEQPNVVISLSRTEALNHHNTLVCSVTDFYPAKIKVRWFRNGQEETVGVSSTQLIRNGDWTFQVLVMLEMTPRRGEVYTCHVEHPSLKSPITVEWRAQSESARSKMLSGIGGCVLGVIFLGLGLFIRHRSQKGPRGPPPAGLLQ

[2] = tested on: T cell-enriched splenic cells from 12-14-wk-old female BWF1 mice; assay: Proliferation of unprimed splenic T cells in response to peptides; assay type: cell-based, mouse; details: result in words
BWF1 mice = assay: Pathogenic potential: immunization of young BWF1 mice with peptides; assay type: in vivo, mouse; details: p34 or p84 immunization vs PBS/CFA/alum; p <0.05
[3] = target: I-Ad class II molecule (mouse); assay: radioligand binding

## C[C@H](NC(=O)[C@H](C)NC(=O)[C@H](Cc1c[nH]cn1)NC(=O)[C@H](C)NC(=O)[C@H](C)NC(=O)[C@H](Cc1c[nH]cn1)NC(=O)[C@H](C)NC(=O)[C@H](C)NC(=O)[C@H](Cc1c[nH]cn1)NC(=O)[C@H](C)NC(=O)[C@H](C)NC(=O)[C@H](Cc1c[nH]cn1)NC(=O)[C@H](C)NC(=O)[C@H](C)NC(=O)[C@H](Cc1c[nH]cn1)NC(=O)[C@H](C)NC(=O)[C@@H](N)Cc1ccc(O)cc1)C(=O)O [RO IV]
[1]
  IC50: 8 nM

## MNWVKQSHGKSL [p34]
[2]
  proliferative responses in naive BWF1 T cells: elicit proliferative responses
BWF1 mice
  plasma creatinine levels: increase in plasma creatinine levels

## OVA 323-336 (from UniProt P01012 324-337) (peptide)
[3]
  IC50: 110 nM

Reference: paper PMC2192064 (The Journal of Experimental Medicine, 1995)
